Values after ≈ are worked out from the molar mass of the structure shown. Residues, ends and D or L forms follow the SMILES beside them. *: point of attachment. βNA = c1ccc2cc(N*)ccc2c1
Columns and labels:
Format in all cases: functional
Citrobacter werkmanii [1] = assay: Antimicrobial activity against Citrobacter werkmanii isolate CIT2 harboring qnrB12 gene by broth macrodilution method in presence of 64 ug/ml Phe-Arg-beta-naphthylamide
Escherichia coli [2] = assay: Antimicrobial activity against Escherichia coli TOP10 harboring pCR-Blunt2-TOPO carrying qnrB12 gene of Citrobacter werkmanii isolate CIT3 by broth macrodilution method
Citrobacter werkmanii [3] = assay: Antimicrobial activity against nalidixic acid-resistant Citrobacter werkmanii isolate CIT1 harboring gyrA Thr83Ile, parC Ser57Thr mutant gene and qnrB12 gene by broth macrodilution method
Escherichia coli [4] = assay: Antimicrobial activity against Escherichia coli TOP10 harboring pCR-Blunt2-TOPO carrying qnrB12 gene of Citrobacter werkmanii isolate CIT1 by broth macrodilution method in presence of 64 ug/ml Phe-Arg-beta-naphthylamide
Escherichia coli [5] = assay: Antimicrobial activity against Escherichia coli TOP10 by broth macrodilution method in presence of 64 ug/ml Phe-Arg-beta-naphthylamide
Escherichia coli [6] = assay: Antimicrobial activity against Escherichia coli TOP10 harboring pCR-Blunt2-TOPO carrying qnrB12 gene of Citrobacter werkmanii isolate CIT2 by broth macrodilution method in presence of 64 ug/ml Phe-Arg-beta-naphthylamide
Escherichia coli [7] = assay: Antimicrobial activity against Escherichia coli TOP10 harboring pCR-Blunt2-TOPO carrying qnrB12 gene of Citrobacter werkmanii isolate CIT3 by broth macrodilution method in presence of 64 ug/ml Phe-Arg-beta-naphthylamide
Escherichia coli [8] = assay: Antimicrobial activity against Escherichia coli TOP10 harboring empty vector pCR-Blunt2-TOPO by broth macrodilution method
Citrobacter werkmanii [9] = assay: Antimicrobial activity against nalidixic acid-resistant Citrobacter werkmanii isolate CIT1 harboring gyrA Thr83Ile, parC Ser57Thr mutant gene and qnrB12 gene by broth macrodilution method in presence of 64 ug/ml Phe-Arg-beta-naphthylamide
Citrobacter werkmanii [10] = assay: Antimicrobial activity against Citrobacter werkmanii isolate CIT3 harboring parC Leu88Gln mutant gene and qnrB12 gene by broth macrodilution method in presence of 64 ug/ml Phe-Arg-beta-naphthylamide
Citrobacter werkmanii [11] = assay: Antimicrobial activity against Citrobacter werkmanii isolate CIT3 harboring parC Leu88Gln mutant and qnrB12 gene by broth macrodilution method
Escherichia coli [12] = assay: Antimicrobial activity against Escherichia coli TOP10 harboring pCR-Blunt2-TOPO carrying qnrB12 gene of Citrobacter werkmanii isolate CIT1 by broth macrodilution method
Escherichia coli [13] = assay: Antimicrobial activity against Escherichia coli TOP10 by broth macrodilution method
Escherichia coli [14] = assay: Antimicrobial activity against Escherichia coli TOP10 harboring empty vector pCR-Blunt2-TOPO by broth macrodilution method in presence of 64 ug/ml Phe-Arg-beta-naphthylamide
Escherichia coli [15] = assay: Antimicrobial activity against Escherichia coli TOP10 harboring pCR-Blunt2-TOPO carrying qnrB12 gene of Citrobacter werkmanii isolate CIT2 by broth macrodilution method
Citrobacter werkmanii [16] = assay: Antimicrobial activity against Citrobacter werkmanii isolate CIT2 harboring qnrB12 gene by broth macrodilution method

Row | SMILES | MIC (Citrobacter werkmanii [1]) | MIC (Escherichia coli [2]) | MIC (Citrobacter werkmanii [3]) | MIC (Escherichia coli [4]) | MIC (Escherichia coli [5]) | MIC (Escherichia coli [6]) | MIC (Escherichia coli [7]) | MIC (Escherichia coli [8]) | MIC (Citrobacter werkmanii [9]) | MIC (Citrobacter werkmanii [10]) | MIC (Citrobacter werkmanii [11]) | MIC (Escherichia coli [12]) | MIC (Escherichia coli [13]) | MIC (Escherichia coli [14]) | MIC (Escherichia coli [15]) | MIC (Citrobacter werkmanii [16])
1 | O=C(O)c1cn(C2CC2)c2cc(N3CCNCC3)c(F)cc2c1=O [CIPROFLOXACIN] | 0.0312 µg/mL | 0.0625 µg/mL (≈ 0.189 µM) | 1 µg/mL (≈ 3.02 µM) | 0.0625 µg/mL | 0.00195 µg/mL | 0.0625 µg/mL | 0.0625 µg/mL | 0.00195 µg/mL (≈ 0.00589 µM) | 0.25 µg/mL | 0.0312 µg/mL | 0.0625 µg/mL (≈ 0.189 µM) | 0.0625 µg/mL (≈ 0.189 µM) | 0.00195 µg/mL (≈ 0.00589 µM) | 0.00195 µg/mL | 0.0625 µg/mL (≈ 0.189 µM) | 0.5 µg/mL (≈ 1.51 µM)
2 | CCn1cc(C(=O)O)c(=O)c2ccc(C)nc21 [NALIDIXIC ACID] | 0.5 µg/mL | 8 µg/mL (≈ 34.4 µM) | > 256 µg/mL | 1 µg/mL | 0.25 µg/mL | 1 µg/mL | 1 µg/mL | 2 µg/mL (≈ 8.61 µM) | 16 µg/mL | 0.25 µg/mL | 8 µg/mL (≈ 34.4 µM) | 8 µg/mL (≈ 34.4 µM) | 2 µg/mL (≈ 8.61 µM) | 0.25 µg/mL | 8 µg/mL (≈ 34.4 µM) | 8 µg/mL (≈ 34.4 µM)
3 | N=C(N)NCCC[C@H](NC(=O)[C@@H](N)Cc1ccccc1)C(=O)Nc1ccc2ccccc2c1 [PABETAN] (H-Phe-Arg-βNA) | – | > 256 µg/mL | > 256 µg/mL | – | – | – | – | > 256 µg/mL | – | – | 256 µg/mL (≈ 573 µM) | > 256 µg/mL | > 256 µg/mL | – | > 256 µg/mL | 256 µg/mL (≈ 573 µM)
